# Measurements from patent publication US20260250318A1, “COMPOSITIONS AND METHODS FOR CROSSING THE BLOOD BRAIN BARRIER” (VOYAGER THERAPEUTICS, INC., priority 2022, published 2026).
# Tested on: brains, heart, liver, muscle, and DRG of the NHPs
# Assay: Maturation of TTM-001 and TTM-002 capsids, NGS enrichment in NHP tissues
# Assay type: in vivo
# Settings: NGS fold-enrichment of RNA, NHP brain, relative to AAV9 control
# Summary of the method: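 Variants carry mutations within and flanking the loop IV peptide insert: positions 450–466 were triplet-randomized, while positions 449–466 received low-frequency point mutations. The combined pool went into two NHPs, and each peptide was scored by NGS enrichment ratio against AAV9.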
row,Sequence,"Fold Enrichment relative to AAV9, Brain (NHP)"
1,KTFPGSGSPHSKVQNQQT,199.720 fold
2,KTEMKHDSPHKSGQNQQT,240.075 fold
3,KTINGSGSPHSKAQRTMT,80.388 fold
4,KTENKSGSPHSKAQNQQT,103.854 fold
5,KAISGHDSPHKSGLNQQT,78.846 fold

# Same assay, conditions: NGS fold-enrichment of matured AAV capsid variants; NHP brain, RNA; relative to AAV9 control
row,Sequence,"Fold Enrichment relative to AAV9, Brain (NHP)"
1,KTENASGSPHSKAQNQQT,58.187 fold
2,KTEVTSGSPHSKAQNQQT,54.663 fold
3,KTINGSGSPHSKAQVRNT,52.735 fold
4,KTEPTSGSPHSKAQNQQT,56.134 fold
5,KTINGSGSPHSKAQDRQS,55.137 fold
6,KTINGSGSPHSKAQPART,55.513 fold

# Same assay, conditions: NGS fold-enrichment, DRG of NHPs, relative to AAV9 control
row,Sequence,"Fold Enrichment relative to AAV9, DRG (NHP)"
1,KTFPGSGSPHSKVQNQQT,0.000 fold
2,KTERMSGSPHSKAQNQQT,0.000 fold
3,KTINGSGSPHSKAQRTMT,0.000 fold
4,KTINGGGSPHSKAQDKQT,0.000 fold

# Same assay, conditions: NGS fold-enrichment, NHP DRG, relative to AAV9 control
row,Sequence,"Fold Enrichment relative to AAV9, DRG (NHP)"
1,KTFPGSGSPHSKVQNQQT,0.000 fold
2,KTEMKHDSPHKSGQNQQT,0.000 fold
3,KTINGSGSPHSKAQRTMT,0.000 fold
4,KTENKSGSPHSKAQNQQT,0.000 fold
5,KAISGHDSPHKSGLNQQT,0.000 fold

# Same assay, conditions: NGS fold-enrichment, NHP heart, relative to AAV9 control
row,Sequence,"Fold Enrichment relative to AAV9, Heart (NHP)"
1,KTFPGSGSPHSKVQNQQT,0.000 fold
2,KTEMKHDSPHKSGQNQQT,0.000 fold
3,KTINGSGSPHSKAQRTMT,0.022 fold
4,KTENKSGSPHSKAQNQQT,0.037 fold
5,KAISGHDSPHKSGLNQQT,0.079 fold

# Same assay, conditions: NGS fold-enrichment, NHP liver DNA, relative to AAV9 control
row,Sequence,"Fold Enrichment relative to AAV9, Liver DNA (NHP)"
1,KTFPGSGSPHSKVQNQQT,0.967 fold
2,KTEMKHDSPHKSGQNQQT,0.000 fold
3,KTINGSGSPHSKAQRTMT,1.025 fold
4,KTENKSGSPHSKAQNQQT,0.119 fold
5,KAISGHDSPHKSGLNQQT,0.015 fold

# Same assay, conditions: NGS fold-enrichment, NHP liver RNA, relative to AAV9 control
row,Sequence,"Fold Enrichment relative to AAV9, Liver RNA (NHP)"
1,KTFPGSGSPHSKVQNQQT,0.000 fold
2,KTEMKHDSPHKSGQNQQT,0.000 fold
3,KTINGSGSPHSKAQRTMT,1.812 fold
4,KTENKSGSPHSKAQNQQT,0.000 fold
5,KAISGHDSPHKSGLNQQT,0.000 fold

# Same assay, conditions: NGS fold-enrichment, NHP muscle, relative to AAV9 control
row,Sequence,"Fold Enrichment relative to AAV9, Muscle (NHP)"
1,KTFPGSGSPHSKVQNQQT,0.000 fold
2,KTEMKHDSPHKSGQNQQT,0.000 fold
3,KTINGSGSPHSKAQRTMT,0.170 fold
4,KTENKSGSPHSKAQNQQT,0.000 fold
5,KAISGHDSPHKSGLNQQT,0.000 fold

# Same assay, conditions: NGS fold-enrichment, RNA, brain of NHPs, relative to AAV9 control
row,Sequence,"Fold Enrichment relative to AAV9, Brain (NHP)"
1,KTFPGSGSPHSKVQNQQT,199.720 fold
2,KTERMSGSPHSKAQNQQT,74.910 fold
3,KTINGSGSPHSKAQRTMT,80.388 fold
4,KTINGGGSPHSKAQDKQT,59.322 fold

# Same assay, conditions: NGS fold-enrichment, heart of NHPs, relative to AAV9 control
row,Sequence,"Fold Enrichment relative to AAV9, Heart (NHP)"
1,KTFPGSGSPHSKVQNQQT,0.000 fold
2,KTERMSGSPHSKAQNQQT,0.000 fold
3,KTINGSGSPHSKAQRTMT,0.022 fold
4,KTINGGGSPHSKAQDKQT,0.000 fold

# Same assay, conditions: NGS fold-enrichment, liver DNA of NHPs, relative to AAV9 control
row,Sequence,"Fold Enrichment relative to AAV9, Liver DNA (NHP)"
1,KTFPGSGSPHSKVQNQQT,0.967 fold
2,KTERMSGSPHSKAQNQQT,0.151 fold
3,KTINGSGSPHSKAQRTMT,1.025 fold
4,KTINGGGSPHSKAQDKQT,0.093 fold

# Same assay, conditions: NGS fold-enrichment, liver RNA of NHPs, relative to AAV9 control
row,Sequence,"Fold Enrichment relative to AAV9, Liver RNA (NHP)"
1,KTFPGSGSPHSKVQNQQT,0.000 fold
2,KTERMSGSPHSKAQNQQT,0.100 fold
3,KTINGSGSPHSKAQRTMT,1.812 fold
4,KTINGGGSPHSKAQDKQT,0.000 fold

# Same assay, conditions: NGS fold-enrichment, muscle of NHPs, relative to AAV9 control
row,Sequence,"Fold Enrichment relative to AAV9, Muscle (NHP)"
1,KTFPGSGSPHSKVQNQQT,0.000 fold
2,KTERMSGSPHSKAQNQQT,0.000 fold
3,KTINGSGSPHSKAQRTMT,0.170 fold
4,KTINGGGSPHSKAQDKQT,0.000 fold

# Same assay, conditions: NHP DRG; relative to AAV9 control
row,Sequence,"Fold Enrichment relative to AAV9, DRG (NHP)"
1,KTENASGSPHSKAQNQQT,0.000 fold
2,KTEVTSGSPHSKAQNQQT,0.000 fold
3,KTINGSGSPHSKAQVRNT,0.000 fold
4,KTEPTSGSPHSKAQNQQT,0.000 fold
5,KTINGSGSPHSKAQDRQS,1.146 fold
6,KTINGSGSPHSKAQPART,0.000 fold

# Same assay, conditions: NHP heart; relative to AAV9 control
row,Sequence,"Fold Enrichment relative to AAV9, Heart (NHP)"
1,KTENASGSPHSKAQNQQT,0.038 fold
2,KTEVTSGSPHSKAQNQQT,0.000 fold
3,KTINGSGSPHSKAQVRNT,0.101 fold
4,KTEPTSGSPHSKAQNQQT,0.000 fold
5,KTINGSGSPHSKAQDRQS,0.016 fold
6,KTINGSGSPHSKAQPART,0.000 fold

# Same assay, conditions: NHP liver, DNA; relative to AAV9 control
row,Sequence,"Fold Enrichment relative to AAV9, Liver DNA (NHP)"
1,KTENASGSPHSKAQNQQT,0.129 fold
2,KTEVTSGSPHSKAQNQQT,0.185 fold
3,KTINGSGSPHSKAQVRNT,0.423 fold
4,KTEPTSGSPHSKAQNQQT,0.527 fold
5,KTINGSGSPHSKAQDRQS,0.086 fold
6,KTINGSGSPHSKAQPART,0.991 fold

# Same assay, conditions: NHP liver, RNA; relative to AAV9 control
row,Sequence,"Fold Enrichment relative to AAV9, Liver RNA (NHP)"
1,KTENASGSPHSKAQNQQT,0.371 fold
2,KTEVTSGSPHSKAQNQQT,0.323 fold
3,KTINGSGSPHSKAQVRNT,0.230 fold
4,KTEPTSGSPHSKAQNQQT,0.061 fold
5,KTINGSGSPHSKAQDRQS,0.644 fold
6,KTINGSGSPHSKAQPART,1.294 fold

# Same assay, conditions: NHP muscle; relative to AAV9 control
row,Sequence,"Fold Enrichment relative to AAV9, Muscle (NHP)"
1,KTENASGSPHSKAQNQQT,0.000 fold
2,KTEVTSGSPHSKAQNQQT,0.000 fold
3,KTINGSGSPHSKAQVRNT,0.011 fold
4,KTEPTSGSPHSKAQNQQT,0.000 fold
5,KTINGSGSPHSKAQDRQS,0.106 fold
6,KTINGSGSPHSKAQPART,0.328 fold

# Tested on: brain
# Assay: Matured TTM-001 and TTM-002 variants, NGS enrichment in mouse brain
# Assay type: in vivo, mice
# Settings: NGS fold-enrichment, brain of mice, relative to AAV9 control
row,Sequence,"Fold Enrichment relative to AAV9, Brain (Mouse)"
1,KTFPGSGSPHSKVQNQQT,97.703 fold
2,KTERMSGSPHSKAQNQQT,122.812 fold
3,KTINGSGSPHSKAQRTMT,100.248 fold
4,KTINGGGSPHSKAQDKQT,50.764 fold

# Same assay, conditions: NGS fold-enrichment, mouse brain, relative to AAV9 control
row,Sequence,"Fold Enrichment relative to AAV9, Brain (Mouse)"
1,KTFPGSGSPHSKVQNQQT,97.703 fold
2,KTEMKHDSPHKSGQNQQT,3.183 fold
3,KTINGSGSPHSKAQRTMT,100.248 fold
4,KTENKSGSPHSKAQNQQT,31.182 fold
5,KAISGHDSPHKSGLNQQT,11.045 fold

# Same assay, conditions: mouse brain; relative to AAV9 control
row,Sequence,"Fold Enrichment relative to AAV9, Brain (Mouse)"
1,KTENASGSPHSKAQNQQT,88.439 fold
2,KTEVTSGSPHSKAQNQQT,81.482 fold
3,KTINGSGSPHSKAQVRNT,68.893 fold
4,KTEPTSGSPHSKAQNQQT,143.397 fold
5,KTINGSGSPHSKAQDRQS,55.701 fold
6,KTINGSGSPHSKAQPART,127.301 fold
